# Measurements from patent US20250281610A1, “P2RY2 ACTIVITY MODULATORS” (Deutsches Krebsforschungszentrum Stiftung des öffentlichen …, priority 2022, published 2025).
# Legend:
# [1] = test system: MART-1-specific TCR transduced T cells cultured with MART-1-epitope transduced BxPC3 cells; test: T cell activation markers in co-culture of MART-1-specific TCR-T cells with MART-1+ BxPC3 cells; type: cell-based, human; settings: single agent: 5 μM AR-C, 10 μg/ml atezolizumab or 10 μg/ml durvalumab, 6-24 hours, CD8+ MART-1-specific TCR+ population (FIG. 10)
# Text: FIG. 10. […] Untreated cells served as the control.
# (§1) MART-1 specific T cells were generated as described (Mezzadra et al., Nature 549, 106-110 (2017); Jorritsma et al., Blood 110 (10): 3564-3572. (2007)). To generate CD33-specific chimeric antigen receptor (CAR) T cells, a CD33Hul95-CD28Z CAR (described in WO 2019/178382) cassette was cloned into a retroviral vector, and the resulting virus was used to transduce T cells as described (Mezzadra et al., Nature 549, 106-110 (2017); Jorritsma et al., Blood 110 (10): 3564-3572. (2007)).
# MART1-specific CD8+ T cells and MART1 epitope-expressing cancer cells were mixed at a ratio of 1:16 to 1:4. […] T cell activation was assessed by surface staining with anti-CD137-BV421 (4-1BB, Biolegend), anti-CD69-APC/Fire™ 750 (FN50, Biolegend), anti-CD25-AF700 (BC96, Biolegend) antibodies and intracellular staining with anti-IL-2-PE/Cy7 (MQ1-17H12, Biolegend), anti-IFN-7-BV421 (4S.B3, Biolegend), anti-TNF-α-BV785 (MAb11, Biolegend) antibodies, followed by flow cytometry analysis. For intracellular staining, brefeldin A (Biolegend) was added to the cell culture medium 4 h before cells were harvested. The viability of cancer cells that grow in suspension including THP-1 cells was assessed by flow cytometry-based absolute cell counting using AccuCount beads (Spherotech). For adherent cancer cells including BxPC3 and MCF7, the cell viability was quantified using CellTiter-Blue Cell Viability Assay (Promega).
# [2] = test system: BxPC3 cells; test: Viability of BxPC3 cells in co-culture with MART-1-specific TCR-T cells (CellTiter-Blue); type: cell-based, human; settings: single agent: 5 μM AR-C, 10 μg/ml atezolizumab or 10 μg/ml durvalumab, 6-24 hours (FIG. 11)
# Text: FIG. 11. […] Untreated cells served as the control.
# as §1
# MART1-specific CD8+ T cells and MART1 epitope-expressing cancer cells were mixed at a ratio of 1:16 to 1:4. Next, cells were centrifugated at 1,600 g for 3 min and incubated at 37° C. and 5% CO2 for 12-72 hours. T cell activation was assessed by surface staining with anti-CD137-BV421 (4-1BB, Biolegend), anti-CD69-APC/Fire™ 750 (FN50, Biolegend), anti-CD25-AF700 (BC96, Biolegend) antibodies and intracellular staining with anti-IL-2-PE/Cy7 (MQ1-17H12, Biolegend), anti-IFN-7-BV421 (4S.B3, Biolegend), anti-TNF-α-BV785 (MAb11, Biolegend) antibodies, followed by flow cytometry analysis. For intracellular staining, brefeldin A (Biolegend) was added to the cell culture medium 4 h before cells were harvested. The viability of cancer cells that grow in suspension including THP-1 cells was assessed by flow cytometry-based absolute cell counting using AccuCount beads (Spherotech). For adherent cancer cells including BxPC3 and MCF7, the cell viability was quantified using CellTiter-Blue Cell Viability Assay (Promega).
smiles,measurement,setting,value
Cc1ccc2c(c1)C=Cc1cc(C)ccc1C2c1cn(Cc2ccc(C(=O)Nc3nn[nH]n3)o2)c(=O)[nH]c1=S [AR-C 118925XX],expression of CD25 on T cells,[1],elevated
same,expression of CD69 on T cells,[1],elevated
same,expression of CD137 on T cells,[1],elevated
same,viability of BxPC3 cells,[2],reduced
